Laboratory results reported in PubChem BioAssay (NCI).
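Assay format: 96-well plates, 48-hour exposure. TGI: total growth inhibition.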 Where a SMILES comes first, the peptide text is derived from it. The star is where a group is joined. Boc = CC(C)(C)OC(=O)*; tBu = CC(C)(C)*

Columns and labels:
Assay in all cases: growth of human tumour cells (NCI), 48 h
786-0 renal = system: 786-0 renal
MALME-3M melanoma = system: MALME-3M melanoma
SK-MEL-5 melanoma = system: SK-MEL-5 melanoma
HT29 colon = system: HT29 colon
SN12C renal = system: SN12C renal
MDA-N = system: MDA-N
UO-31 renal = system: UO-31 renal
HCC-2998 colon = system: HCC-2998 colon
SF-295 CNS = system: SF-295 CNS
UACC-257 melanoma = system: UACC-257 melanoma

SMILES | TGI (786-0 renal) [µM] | TGI (MALME-3M melanoma) [µM] | TGI (SK-MEL-5 melanoma) [µM] | TGI (HT29 colon) [µM] | TGI (SN12C renal) [µM] | TGI (MDA-N) [µM] | TGI (UO-31 renal) [µM] | TGI (HCC-2998 colon) [µM] | TGI (SF-295 CNS) [µM] | TGI (UACC-257 melanoma) [µM]
CSC1(Cc2ccccn2)C(=O)Nc2cccc([N+](=O)[O-])c21 (centres undefined) | > 100 | > 100 | > 100 | > 100 | > 100 | > 100 | > 100 | > 100 | > 100 | > 100
O/N=C1\CSc2ccccc2C1 | > 100 | > 100 | > 100 | > 100 | > 100 | > 100 | > 100 | > 100 | > 100 | > 100
CCN(CC)Cc1ccc(Nc2c3ccccc3nc3ccccc23)cc1 | 10 | 3.61 | 3.15 | 22.3 | 7.66 | 3.23 | 5.22 | 2.4 | 10.9 | 3.21
CCOC(=O)C(C)(Cc1ccc(O)cn1)NC(=O)c1ccccc1 (centres undefined) | > 100 | > 100 | > 100 | > 100 |  | > 100 | > 100 | > 100 | > 100 | > 100
Cc1cc(NS(=O)(=O)c2ccc(NC(=O)c3ccc4nc5ccccc5c(Nc5ccc(S(=O)(=O)Nc6cc(C)on6)cc5)c4c3)cc2)no1 | > 50 | > 50 | > 50 | > 50 | > 50 | > 50 | > 50 | > 50 | > 50 | > 50
O=c1[nH]nc(Cc2ccccc2)n1C1CC1 | > 100 | > 100 | > 100 | > 100 | > 100 | > 100 | > 100 | > 100 | > 100 | > 100
Cc1ccc(C=C(C(=O)O)C(=O)O)o1 | > 100 | > 100 | > 100 | > 100 | > 100 | > 100 | > 100 | > 100 | > 100 | > 100
CC1(CCCCO)C=CC(S(=O)(=O)c2ccccc2)CC1 (centres undefined) | 14.8 | 12.1 | 15.4 | 5.91 | 23.6 | 14.4 | 16.3 | 19.6 | 24.4 | 10.9
O=C1CC(=O)NC(=NN2C(=O)/C(=C/c3ccc(Cl)cc3)N=C2c2ccccc2)N1 | 37.5 | 33.4 | 32 | 31.5 | 32.3 | 30.2 | 31.7 | 24.2 | 33 | 42
O=C(O)c1ccccc1CC(Cc1ccccc1)C(=O)O (centres undefined) | > 100 | > 100 | > 100 | > 100 | > 100 | > 100 | > 100 | > 100 | > 100 | > 100
CC(C)=NNc1ncnc2nc[nH]c12 | > 100 | > 100 | 48.8 | > 100 | > 100 | > 100 | > 87.9 | 32 | > 100 | > 100
CC(OC(C)(C)C)C(NC(=O)C(N)CCCCNC(=O)OC(C)(C)C)C(=O)NC(Cc1ccccc1)C(=O)O (centres undefined) (H-Lys(Boc)-Thr(tBu)-Phe-OH; configuration not given here) | > 100 | > 100 | > 100 | > 100 | > 100 | > 100 | > 100 | > 100 | > 100 | > 100
COc1cc(S(=O)(=O)Nc2ccc(-c3csc(/N=C\c4cccs4)n3)cc2)ccc1Cl | > 100 | > 100 | > 100 | > 100 | > 100 | > 100 | > 100 | 70.1 | > 100 | > 100
O=C(c1ccccc1)c1ccc2nc3n(c2c1)C(c1c(Cl)cccc1Cl)SC3 (centres undefined) | > 100 | 31.3 | 14.6 | 31 | > 68.7 | 3.84 | > 67.6 | > 50.4 | > 26.6 | > 100
O=C1c2ccccc2/C=C\C(c2ccccc2)=N/N1c1ccccc1Cl | > 100 | 71.4 | 26.3 | 37 | > 100 | 14.7 | 98.8 | > 100 | > 100 | 90.5
Cn1cnnc1SC(F)(F)c1nc2ccccc2o1 | > 100 | > 100 | > 100 | > 100 | > 100 | > 100 | > 100 | > 100 | > 100 | > 100
O=S(=O)(c1ccc2ccccc2c1)N1CCN(S(=O)(=O)c2ccc3ccccc3c2)CC1 | > 100 | > 100 | > 100 | > 100 | > 100 | > 100 | > 100 | > 100 | > 100 | > 100
O=S(=O)(/N=C(\NO)Nc1ccc(Cl)cc1)c1cc(S(=O)(=O)c2ccccc2)cs1 | 30 | 28.5 | 21.9 | 47 | 33.6 | 34.8 | 27.6 | 27.6 | 32.7 | 39
COC(=O)C1(Cc2ccccc2)Cc2c(C)ccc(C)c2C1=O (centres undefined) | > 100 | 50.3 | 28.8 | 69.8 | > 100 | > 100 | 38 | 97.7 | > 100 | 64.9
